Measured values taken from ChEMBL document CHEMBL3352227, “Synthesis, antimycobacterial and antibacterial evaluation of l-[(1R, 2S)-2-fluorocyclopropyl]fluoroquinolone derivatives containing an oxime functional moiety” (Eur J Med Chem, 2014).
In brackets after ≈: the same amount, converted by molar mass.

Experiments:
Type in all cases: functional
[1] = system: Klebsiella pneumoniae; experiment: Antibacterial activity against extended-spectrum beta-lactamase producin Klebsiella pneumoniae 12-7 after 18 to 24 hrs by standard twofold serial dilution method
[2] = system: Staphylococcus aureus; experiment: Antibacterial activity against methicillin-resistant Staphylococcus aureus 12-2 after 18 to 24 hrs by standard twofold serial dilution method
[3] = system: Staphylococcus aureus; experiment: Antibacterial activity against methicillin-resistant Staphylococcus aureus 12-5 after 18 to 24 hrs by standard twofold serial dilution method
[4] = system: Pseudomonas aeruginosa; experiment: Antibacterial activity against Pseudomonas aeruginosa 12-12 after 18 to 24 hrs by standard twofold serial dilution method
[5] = system: Staphylococcus epidermidis; experiment: Antibacterial activity against methicillin-resistant Staphylococcus epidermidis 12-6 after 18 to 24 hrs by standard twofold serial dilution method
[6] = system: Staphylococcus epidermidis; experiment: Antibacterial activity against methicillin-sensitive Staphylococcus epidermidis 12-8 after 18 to 24 hrs by standard twofold serial dilution method
[7] = system: Mycobacterium tuberculosis; experiment: Antimycobacterial activity against Mycobacterium tuberculosis H37Rv ATCC 27294 by MABA method
[8] = system: Escherichia coli; experiment: Antibacterial activity against extended-spectrum beta-lactamase producing Escherichia coli 12-3 after 18 to 24 hrs by standard twofold serial dilution method
[9] = system: Escherichia coli; experiment: Antibacterial activity against extended-spectrum beta-lactamase producing Escherichia coli 12-14 after 18 to 24 hrs by standard twofold serial dilution method
[10] = system: Streptococcus pneumoniae; experiment: Antibacterial activity against Streptococcus pneumoniae ATCC 49619 after 18 to 24 hrs by standard twofold serial dilution method
[11] = system: Klebsiella pneumoniae; experiment: Antibacterial activity against extended-spectrum beta-lactamase producin Klebsiella pneumoniae 12-3 after 18 to 24 hrs by standard twofold serial dilution method
[12] = system: Klebsiella pneumoniae; experiment: Antibacterial activity against Klebsiella pneumoniae 12-1 after 18 to 24 hrs by standard twofold serial dilution method
[13] = system: Staphylococcus epidermidis; experiment: Antibacterial activity against methicillin-sensitive Staphylococcus epidermidis 12-6 after 18 to 24 hrs by standard twofold serial dilution method
[14] = system: Klebsiella pneumoniae; experiment: Antibacterial activity against extended-spectrum beta-lactamase producin Klebsiella pneumoniae 12-4 after 18 to 24 hrs by standard twofold serial dilution method
[15] = system: Staphylococcus epidermidis; experiment: Antibacterial activity against methicillin-resistant Staphylococcus epidermidis 12-1 after 18 to 24 hrs by standard twofold serial dilution method
[16] = system: Klebsiella pneumoniae; experiment: Antibacterial activity against Klebsiella pneumoniae 12-4 after 18 to 24 hrs by standard twofold serial dilution method
[17] = system: Staphylococcus epidermidis; experiment: Antibacterial activity against methicillin-sensitive Staphylococcus epidermidis 12-1 after 18 to 24 hrs by standard twofold serial dilution method
[18] = system: Staphylococcus aureus; experiment: Antibacterial activity against methicillin-resistant Staphylococcus aureus 12-4 after 18 to 24 hrs by standard twofold serial dilution method
[19] = system: Staphylococcus aureus; experiment: Antibacterial activity against methicillin-sensitive Staphylococcus aureus 12-4 after 18 to 24 hrs by standard twofold serial dilution method
[20] = system: Escherichia coli; experiment: Antibacterial activity against Escherichia coli ATCC 25922 after 18 to 24 hrs by standard twofold serial dilution method
[21] = system: Pseudomonas aeruginosa; experiment: Antibacterial activity against Pseudomonas aeruginosa 12-14 after 18 to 24 hrs by standard twofold serial dilution method
[22] = system: Staphylococcus aureus; experiment: Antibacterial activity against methicillin-sensitive Staphylococcus aureus 12-1 after 18 to 24 hrs by standard twofold serial dilution method
[23] = system: Escherichia coli; experiment: Antibacterial activity against Escherichia coli 12-1 after 18 to 24 hrs by standard twofold serial dilution method
[24] = system: Staphylococcus epidermidis; experiment: Antibacterial activity against methicillin-sensitive Staphylococcus epidermidis 12-3 after 18 to 24 hrs by standard twofold serial dilution method
[25] = system: Escherichia coli; experiment: Antibacterial activity against extended-spectrum beta-lactamase producing Escherichia coli 12-2 after 18 to 24 hrs by standard twofold serial dilution method
[26] = system: Streptococcus pneumoniae; experiment: Antibacterial activity against Streptococcus pneumoniae 12-18 after 18 to 24 hrs by standard twofold serial dilution method
[27] = system: Klebsiella pneumoniae; experiment: Antibacterial activity against Klebsiella pneumoniae 12-2 after 18 to 24 hrs by standard twofold serial dilution method
[28] = system: Klebsiella pneumoniae; experiment: Antibacterial activity against extended-spectrum beta-lactamase producin Klebsiella pneumoniae 12-14 after 18 to 24 hrs by standard twofold serial dilution method
[29] = system: Staphylococcus aureus; experiment: Antibacterial activity against Staphylococcus aureus ATCC 25923 after 18 to 24 hrs by standard twofold serial dilution method
[30] = system: Staphylococcus aureus; experiment: Antibacterial activity against methicillin-sensitive Staphylococcus aureus 12-5 after 18 to 24 hrs by standard twofold serial dilution method
[31] = system: Staphylococcus aureus; experiment: Antibacterial activity against methicillin-sensitive Staphylococcus aureus 12-2 after 18 to 24 hrs by standard twofold serial dilution method
[32] = system: Escherichia coli; experiment: Antibacterial activity against extended-spectrum beta-lactamase producing Escherichia coli 12-15 after 18 to 24 hrs by standard twofold serial dilution method

| Compound | MIC [1] [µg/mL] | MIC [2] [µg/mL] | MIC [3] [µg/mL] | MIC [4] [µg/mL] | MIC [5] [µg/mL] | MIC [6] [µg/mL] | MIC [7] [µg/mL] | MIC [8] [µg/mL] | MIC [9] [µg/mL] | MIC [10] [µg/mL] | MIC [11] [µg/mL] | MIC [12] [µg/mL] | MIC [13] [µg/mL] | MIC [14] [µg/mL] | MIC [15] [µg/mL] | MIC [16] [µg/mL] | MIC [17] [µg/mL] | MIC [18] [µg/mL] | MIC [19] [µg/mL] | MIC [20] [µg/mL] | further results |
| --- | --- | --- | --- | --- | --- | --- | --- | --- | --- | --- | --- | --- | --- | --- | --- | --- | --- | --- | --- | --- | --- |
| CO/N=C1/CCN(c2c(F)cc3c(=O)c(C(=O)O)cn([C@@H]4C[C@@H]4F)c3c2Cl)CC1N (stereo partly drawn) | 16 (≈ 36.3 µM) | 32 (≈ 72.6 µM) | 32 (≈ 72.6 µM) | 16 (≈ 36.3 µM) | 32 (≈ 72.6 µM) | 4 (≈ 9.07 µM) | 16 (≈ 36.3 µM) | 32 (≈ 72.6 µM) | > 128 | 1 (≈ 2.27 µM) | > 128 | 2 (≈ 4.54 µM) | 0.5 (≈ 1.13 µM) | 32 (≈ 72.6 µM) | 16 (≈ 36.3 µM) | 1 (≈ 2.27 µM) | 0.5 (≈ 1.13 µM) | 64 (≈ 145 µM) | 0.25 (≈ 0.567 µM) | 1 (≈ 2.27 µM) | MIC [21]: 128 µg/mL (≈ 290 µM); MIC [22]: 0.25 µg/mL (≈ 0.567 µM); MIC [23]: 2 µg/mL (≈ 4.54 µM); MIC [24]: 1 µg/mL (≈ 2.27 µM); MIC [25]: > 128 µg/mL; MIC [26]: 8 µg/mL (≈ 18.1 µM); MIC [27]: 2 µg/mL (≈ 4.54 µM); MIC [28]: > 128 µg/mL; MIC [29]: 1 µg/mL (≈ 2.27 µM); MIC [30]: 0.25 µg/mL (≈ 0.567 µM); MIC [31]: 0.25 µg/mL (≈ 0.567 µM); MIC [32]: > 128 µg/mL |
| NC[C@@H]1/C(=N\OCc2ccccc2)CN1c1nc2c(cc1F)c(=O)c(C(=O)O)cn2[C@@H]1C[C@@H]1F | 8 (≈ 17 µM) | 128 (≈ 273 µM) | 128 (≈ 273 µM) | 8 (≈ 17 µM) | 32 (≈ 68.2 µM) | 32 (≈ 68.2 µM) | 2 (≈ 4.26 µM) | 16 (≈ 34.1 µM) | > 128 | 1 (≈ 2.13 µM) | > 128 | 1 (≈ 2.13 µM) | 0.5 (≈ 1.07 µM) | 32 (≈ 68.2 µM) | 32 (≈ 68.2 µM) | 1 (≈ 2.13 µM) | 0.5 (≈ 1.07 µM) | 128 (≈ 273 µM) | 0.25 (≈ 0.533 µM) | 0.5 (≈ 1.07 µM) | MIC [21]: 128 µg/mL (≈ 273 µM); MIC [22]: 0.5 µg/mL (≈ 1.07 µM); MIC [23]: 4 µg/mL (≈ 8.52 µM); MIC [24]: 1 µg/mL (≈ 2.13 µM); MIC [25]: > 128 µg/mL; MIC [26]: 4 µg/mL (≈ 8.52 µM); MIC [27]: 1 µg/mL (≈ 2.13 µM); MIC [28]: 128 µg/mL (≈ 273 µM); MIC [29]: 0.5 µg/mL (≈ 1.07 µM); MIC [30]: 0.25 µg/mL (≈ 0.533 µM); MIC [31]: 0.25 µg/mL (≈ 0.533 µM); MIC [32]: > 128 µg/mL |
| CO/N=C1/CN(c2cc3c(cc2F)c(=O)c(C(=O)O)cn3[C@@H]2C[C@@H]2F)[C@H]1CN | 0.5 (≈ 1.27 µM) | 32 (≈ 81.6 µM) | 32 (≈ 81.6 µM) | 0.25 (≈ 0.637 µM) | 4 (≈ 10.2 µM) | 0.125 (≈ 0.319 µM) | 0.5 (≈ 1.27 µM) | 16 (≈ 40.8 µM) | 64 (≈ 163 µM) | 0.125 (≈ 0.319 µM) | 64 (≈ 163 µM) | 0.125 (≈ 0.319 µM) | 0.25 (≈ 0.637 µM) | 8 (≈ 20.4 µM) | 8 (≈ 20.4 µM) | 0.015 (≈ 0.0382 µM) | 0.25 (≈ 0.637 µM) | 64 (≈ 163 µM) | 0.25 (≈ 0.637 µM) | < 0.008 | MIC [21]: 32 µg/mL (≈ 81.6 µM); MIC [22]: 0.5 µg/mL (≈ 1.27 µM); MIC [23]: 1 µg/mL (≈ 2.55 µM); MIC [24]: 0.25 µg/mL (≈ 0.637 µM); MIC [25]: 128 µg/mL (≈ 326 µM); MIC [26]: 0.5 µg/mL (≈ 1.27 µM); MIC [27]: 0.125 µg/mL (≈ 0.319 µM); MIC [28]: 64 µg/mL (≈ 163 µM); MIC [29]: 0.06 µg/mL (≈ 0.153 µM); MIC [30]: 0.5 µg/mL (≈ 1.27 µM); MIC [31]: 0.5 µg/mL (≈ 1.27 µM); MIC [32]: > 128 µg/mL |
| NCC1CN(c2cc3c(cc2F)c(=O)c(C(=O)O)cn3[C@@H]2C[C@@H]2F)C/C1=N/OCc1ccccc1 (stereo partly drawn) | 16 (≈ 33.2 µM) | 4 (≈ 8.29 µM) | 4 (≈ 8.29 µM) | 1 (≈ 2.07 µM) | 0.5 (≈ 1.04 µM) | 0.125 (≈ 0.259 µM) | 0.25 (≈ 0.518 µM) | 32 (≈ 66.3 µM) | 16 (≈ 33.2 µM) | 0.06 (≈ 0.124 µM) | 16 (≈ 33.2 µM) | 0.06 (≈ 0.124 µM) | 0.06 (≈ 0.124 µM) | 16 (≈ 33.2 µM) | 1 (≈ 2.07 µM) | 0.25 (≈ 0.518 µM) | 0.125 (≈ 0.259 µM) | 8 (≈ 16.6 µM) | 0.06 (≈ 0.124 µM) | 0.06 (≈ 0.124 µM) | MIC [21]: 1 µg/mL (≈ 2.07 µM); MIC [22]: 0.06 µg/mL (≈ 0.124 µM); MIC [23]: 0.06 µg/mL (≈ 0.124 µM); MIC [24]: 0.125 µg/mL (≈ 0.259 µM); MIC [25]: 64 µg/mL (≈ 133 µM); MIC [26]: 0.25 µg/mL (≈ 0.518 µM); MIC [27]: 0.25 µg/mL (≈ 0.518 µM); MIC [28]: 64 µg/mL (≈ 133 µM); MIC [29]: < 0.008 µg/mL; MIC [30]: 0.06 µg/mL (≈ 0.124 µM); MIC [31]: < 0.008 µg/mL; MIC [32]: 64 µg/mL (≈ 133 µM) |
